Results from US10633419B2, “Immunomodulators” (BRISTOL-MYERS SQUIBB COMPANY, priority 2014, dated 2020).
Starred links: 1 amine or outer side, 2 acyl side, 3 side chain; linkers in the order of their positions; H or OH if unused. Positions of bridges follow the written chain, without caps; N, C: chain ends. Non-standard residues stand in square brackets, D forms with d. Residues, ends and D or L forms follow the SMILES beside them. *: point of attachment. δOrn(Nα-Octadecanedioyl) = O=C(O)CCCCCCCCCCCCCCCCC(=O)N[C@@H](CCCN*)C(=O)O; X6 = O=C(O)CCCCCCCCCCCCCCCCC(=O)N[C@@H](CCC(=O)NCCCOCCOCCOCCCN*)C(=O)O; X18 = O=C(O)CCCCCCCCCCCCCCC(=O)N[C@@H](CC(=O)NCCCOCCOCCOCCCN*)C(=O)O; Trp(1-CH2COOH) = N[C@@H](Cc1cn(CC(=O)O)c2ccccc12)C(=O)O; X14 = O=C(O)CCCCCCCCCCNC(=O)CCC(=O)NCCCOCCOCCOCCCN*; X9 = O=C(O)CCCCCCCCCCCCCCCCC(=O)N[C@@H](CCN*)C(=O)O; d(cisHyp) = O=C(O)[C@H]1C[C@@H](O)CN1; βAsp = O=C(O)[C@H](CC(=O)[*:2])N[*:1]; NH(CH2)12COOH = O=C(O)CCCCCCCCCCCCN*; PEG6 = NCCOCCOCCOCCOCCOCCOCCC(=O)O; Hyp = O=C(O)[C@@H]1C[C@@H](O)CN1; Myristoyl = CCCCCCCCCCCCCC(=O)*; dHyp = O=C(O)[C@H]1C[C@H](O)CN1; NMeNle = CCCC[C@H](NC)C(=O)O; Pip = O=C(O)[C@@H]1CCCCN1; NMeA = CN[C@@H](C)C(=O)O; Aun = NCCCCCCCCCCC(=O)O; Dab = NCC[C@H](N)C(=O)O; Dap = NC[C@H](N)C(=O)O; PEG2 = NCCOCCOCCC(=O)O

Target: T1, PD-L1 (Homo sapiens, UniProt Q9NZQ7)
T1 construct: hPDL1(19-239)-TVMV-His; made in house; host or cells: HEK293T
Test: PD-1/PD-L1 Homogenous Time-Resolved Fluorescence (HTRF) binding assay (PD-1-Ig/PD-L1-His)
Details: inhibition of PD-1-Ig binding to PD-L1-TVMV-His; value given as number; read-out: HTRF IC50
Procedure, shortened: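 HTRF competition in dPBS with 0.1% BSA and 0.05% Tween-20: 20 nM PD-1-Ig added after 15 min compound pre-incubation with 10 nM PD-L1-His, then another 15 min. Signal (665/620 nm) after 30 min with APC anti-His (20 nM) and Eu anti-Ig (1 nM).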

T1 sequence (Q9NZQ7 with tags, fused parts or gaps): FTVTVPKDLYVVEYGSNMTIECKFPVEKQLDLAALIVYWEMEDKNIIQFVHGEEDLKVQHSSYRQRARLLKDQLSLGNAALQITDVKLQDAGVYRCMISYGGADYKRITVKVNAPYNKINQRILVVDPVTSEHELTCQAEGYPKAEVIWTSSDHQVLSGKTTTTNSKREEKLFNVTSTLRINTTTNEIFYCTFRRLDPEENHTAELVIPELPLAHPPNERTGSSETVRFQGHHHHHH

Row | IC50 | SMILES
1 | 12.7 nM | CCCC[C@H]1C(=O)N(C)[C@@H](CCCC)C(=O)N[C@@H](CCC(=O)O)C(=O)N[C@H](C(=O)NCCCOCCOCCOCCCNC(=O)CCC(=O)NCCCCCCCCCCC(=O)O)CSCC(=O)N[C@@H](Cc2ccc(O)cc2)C(=O)N(C)[C@@H](C)C(=O)N[C@@H](CC(N)=O)C(=O)N2CCC[C@H]2C(=O)N[C@@H](Cc2cnc[nH]2)C(=O)N[C@@H](CCCCN)C(=O)N2C[C@H](O)C[C@H]2C(=O)N[C@@H](Cc2c[nH]c3ccccc23)C(=O)N[C@@H](CO)C(=O)N[C@@H](Cc2cn(CC(=O)O)c3ccccc23)C(=O)N1C [Example 11080] ({CH2CO}-Y[NMeA]NPHK[Hyp]WS[Trp(1-CH2COOH)][NMeNle][NMeNle]EC-X14; thioether N-14)
2 | 14 nM | CCCC[C@H]1C(=O)N(C)[C@@H](CCCC)C(=O)N[C@@H](CC(C)C)C(=O)N[C@H](C(=O)NCC(=O)N[C@@H](Cc2cn(CC[C@H](NC(=O)CCCCCCCCCCCCCCCCC(=O)O)C(=O)O)nn2)C(=O)O)CSCC(=O)N[C@@H](Cc2ccc(O)cc2)C(=O)N(C)[C@@H](C)C(=O)N[C@@H](CC(N)=O)C(=O)N2CCC[C@H]2C(=O)N[C@@H](CN)C(=O)N[C@@H](CC(C)C)C(=O)N2C[C@H](O)C[C@H]2C(=O)N[C@@H](Cc2c[nH]c3ccccc23)C(=O)N[C@@H](CCN)C(=O)N[C@@H](Cc2cn(CC(=O)O)c3ccccc23)C(=O)N1C [Example 14095]
3 | 10 nM | CCCC[C@H]1C(=O)N(C)[C@@H](CCCC)C(=O)N[C@@H](CC(C)C)C(=O)N[C@H](C(=O)NCC(=O)N[C@@H](CC(=O)O)C(=O)N[C@@H](CC(=O)NCCCOCCOCCOCCCNC(=O)C[C@H](NC(=O)CCCCCCCCCCCCCCC(=O)O)C(=O)O)C(=O)O)CSCC(=O)N[C@@H](Cc2ccc(O)cc2)C(=O)N(C)[C@@H](C)C(=O)N[C@@H](CC(N)=O)C(=O)N2CCC[C@@H]2C(=O)N[C@@H](CN)C(=O)N[C@@H](CC(C)C)C(=O)N2C[C@@H](O)C[C@@H]2C(=O)N[C@@H](Cc2c[nH]c3ccccc23)C(=O)N[C@@H](CCN)C(=O)N[C@@H](Cc2cn(CC(=O)O)c3ccccc23)C(=O)N1C [Example 11240] ({CH2CO}-Y[NMeA]N[dP][Dap]L[dHyp]W[Dab][Trp(1-CH2COOH)][NMeNle][NMeNle]LCGDD(X18)-OH; thioether N-14)

Same assay, conditions: inhibition of PD-1-Ig binding to PD-L1-TVMV-His; value given as range class; read-out: HTRF IC50

Row | SMILES | IC50
4 | CCCC[C@H]1C(=O)N(C)[C@@H](CCCC)C(=O)N[C@@H](CC(C)C)C(=O)N[C@H](C(=O)NCC(=O)N[C@@H](CCC(=O)NCCC[C@H](NC(=O)CCCCCCCCCCCCCCCCC(=O)O)C(=O)O)C(=O)O)CSCC(=O)N[C@@H](Cc2ccc(O)cc2)C(=O)N2CCCC[C@H]2C(=O)N[C@@H](CC(N)=O)C(=O)N2CCC[C@H]2C(=O)N[C@@H](CN)C(=O)N[C@@H](CC(C)C)C(=O)N2C[C@H](O)C[C@H]2C(=O)N[C@@H](Cc2c[nH]c3ccccc23)C(=O)N[C@@H](CCN)C(=O)N[C@@H](Cc2cn(CC(=O)O)c3ccccc23)C(=O)N1C [Example 13142] ({CH2CO}-Y[Pip]NP[Dap]L[Hyp]W[Dab][Trp(1-CH2COOH)][NMeNle][NMeNle]LCGE(δOrn(Nα-Octadecanedioyl))-OH; thioether N-14) | 100 to 1600 nM
5 | CCCC[C@H]1C(=O)N(C)[C@@H](CCCC)C(=O)N[C@@H](CCC(=O)O)C(=O)N[C@H](C(=O)NCC(=O)N[C@@H](Cc2cn(CCOCCOCCOCCOCCOCCOCCOCCOCCOCCOCCOCCNC(=O)CC[C@H](NC(=O)CCCCCCCCCCCCCCCCC(=O)O)C(=O)O)nn2)C(=O)O)CSCC(=O)N[C@@H](Cc2ccc(O)cc2)C(=O)N2CCCC[C@H]2C(=O)N[C@@H](CC(N)=O)C(=O)N2CCC[C@H]2C(=O)N[C@@H](CNC)C(=O)N[C@@H](CC(C)C)C(=O)N2C[C@H](O)C[C@H]2C(=O)N[C@@H](Cc2c[nH]c3ccccc23)C(=O)N[C@@H](CCN)C(=O)N[C@@H](Cc2cn(CC(=O)O)c3ccccc23)C(=O)N1C [Example 14107] | 100 to 1600 nM

More lines, now with the values ahead:

Row | IC50 | SMILES
6 | 10 to 99 nM | CCCC[C@H]1C(=O)N(C)[C@@H](CCCC)C(=O)N[C@@H](CCC(=O)O)C(=O)N[C@H](C(=O)NCC(=O)NCC(=O)NCC(=O)NCCCCCCCCCCC(=O)O)CSCC(=O)N[C@@H](Cc2ccc(O)cc2)C(=O)N(C)[C@@H](C)C(=O)N[C@@H](CC(=O)O)C(=O)N2CCC[C@H]2C(=O)N[C@@H](CN)C(=O)N[C@@H](CC(C)C)C(=O)N2C[C@H](O)C[C@@H]2C(=O)N[C@@H](Cc2c[nH]c3ccccc23)C(=O)N[C@@H](CCN)C(=O)N[C@@H](Cc2cn(CC(=O)O)c3ccccc23)C(=O)N1C [Example 11144] ({CH2CO}-Y[NMeA]DP[Dap]L[d(cisHyp)]W[Dab][Trp(1-CH2COOH)][NMeNle][NMeNle]ECGGG[Aun]-OH; thioether N-14)
7 | 10 to 99 nM | CCCC[C@H]1C(=O)N(C)[C@@H](CCCC)C(=O)N[C@@H](CCC(=O)O)C(=O)N[C@H](C(=O)NCC(=O)N[C@@H](Cc2cn(CC[C@H](NC(=O)CCCCCCCCCCCCCCCCC(=O)O)C(=O)O)nn2)C(=O)O)CSCC(=O)N[C@@H](Cc2ccc(OC)cc2)C(=O)N2CCCC[C@H]2C(=O)N[C@@H](CC(=O)O)C(=O)N2CCC[C@H]2C(=O)N[C@@H](CN)C(=O)N[C@@H](CCC(N)=O)C(=O)N2C[C@H](O)C[C@H]2C(=O)N[C@@H](Cc2c[nH]c3ccccc23)C(=O)N[C@@H](CCN)C(=O)N[C@@H](Cc2cn(CC(=O)O)c3ccccc23)C(=O)N1C [Example 14121]
8 | 10 to 99 nM | CCCC[C@H]1C(=O)N(C)[C@@H](CCCC)C(=O)N[C@@H](CC(C)C)C(=O)N[C@H](C(=O)NCC(=O)N[C@@H](CC(=O)NCCCOCCOCCOCCCNC(=O)CC[C@H](NC(=O)CCCCCCCCCCCCCCCCC(=O)O)C(=O)O)C(=O)O)CSCC(=O)N[C@@H](Cc2ccc(O)cc2)C(=O)N2CCCC[C@H]2C(=O)N[C@@H](CC(N)=O)C(=O)N2CCC[C@H]2C(=O)N[C@@H](CN)C(=O)N[C@@H](CC(C)C)C(=O)N2C[C@H](O)C[C@H]2C(=O)N[C@@H](Cc2c[nH]c3ccccc23)C(=O)N[C@@H](CCN)C(=O)N[C@@H](Cc2cn(CC(=O)O)c3ccccc23)C(=O)N1C [Example 11262] ({CH2CO}-Y[Pip]NP[Dap]L[Hyp]W[Dab][Trp(1-CH2COOH)][NMeNle][NMeNle]LCGD(X6)-OH; thioether N-14)
9 | 10 to 99 nM | CCCC[C@H]1C(=O)N(C)[C@@H](CCCC)C(=O)N[C@@H](CC(C)C)C(=O)N[C@H](C(=O)NCCOCCOCCOCCOCCOCCOCCC(=O)O)CSCC(=O)N[C@@H](Cc2ccc(O)cc2)C(=O)N(C)[C@@H](C)C(=O)N[C@@H](CC(N)=O)C(=O)N2CCC[C@H]2C(=O)N[C@@H](Cc2cnc[nH]2)C(=O)N[C@@H](CCC(=O)O)C(=O)N2C[C@H](O)C[C@@H]2C(=O)N[C@@H](Cc2c[nH]c3ccccc23)C(=O)N[C@@H](CCN)C(=O)N[C@@H](Cc2cn(CC(=O)O)c3ccccc23)C(=O)N1C [Example 11044] ({CH2CO}-Y[NMeA]NPHE[d(cisHyp)]W[Dab][Trp(1-CH2COOH)][NMeNle][NMeNle]LC[PEG6]-OH; thioether N-14)
10 | 10 to 99 nM | CCCCCCCCCCCCCC(=O)NCCCC[C@H](NC(=O)[C@H](CC(=O)O)NC(=O)CNC(=O)[C@@H]1CSCC(=O)N[C@@H](Cc2ccc(O)cc2)C(=O)N(C)[C@@H](C)C(=O)N[C@@H](CC(=O)O)C(=O)N2CCC[C@H]2C(=O)N[C@@H](Cc2cnc[nH]2)C(=O)N[C@@H](CC(C)C)C(=O)N2C[C@H](O)C[C@H]2C(=O)N[C@@H](Cc2c[nH]c3ccccc23)C(=O)N[C@@H](CO)C(=O)N[C@@H](Cc2c[nH]c3ccccc23)C(=O)N(C)[C@@H](CCCC)C(=O)N(C)[C@@H](CCCC)C(=O)N[C@@H](CCCNC(=N)N)C(=O)N1)C(N)=O [Example 11016] ({CH2CO}-Y[NMeA]DPHL[Hyp]WSW[NMeNle][NMeNle]RCGDK(Myristoyl)-NH2; thioether N-14)
11 | 10 to 99 nM | CCCC[C@H]1C(=O)N(C)[C@@H](CCCC)C(=O)N[C@@H](CCC(=O)O)C(=O)N[C@H](C(=O)NCC(=O)N[C@@H](Cc2cn(CC[C@H](NC(=O)CCCCCCCCCCCCCCC(=O)O)C(=O)O)nn2)C(N)=O)CSCC(=O)N[C@@H](Cc2ccc(O)cc2)C(=O)N(C)[C@@H](C)C(=O)N[C@@H](CC(=O)O)C(=O)N2CCC[C@H]2C(=O)N[C@@H](Cc2c[nH]cn2)C(=O)N[C@@H](CCCCN)C(=O)N2C[C@H](O)C[C@H]2C(=O)N[C@@H](Cc2c[nH]c3ccccc23)C(=O)N[C@@H](CCCCN)C(=O)N[C@@H](Cc2cn(CC(=O)O)c3ccccc23)C(=O)N1C [Example 14075]
12 | 10 to 99 nM | CCCC[C@H]1C(=O)N(C)[C@@H](CCCC)C(=O)N[C@@H](CC(C)C)C(=O)N[C@H](C(=O)NCC(=O)NCC(=O)NCC(=O)NCCCCCCCCCCCCC(=O)O)CSCC(=O)N[C@@H](Cc2ccc(O)cc2)C(=O)N(C)[C@@H](C)C(=O)N[C@@H](CC(=O)O)C(=O)N2CCC[C@H]2C(=O)N[C@@H](Cc2cnc[nH]2)C(=O)N[C@@H](CCCCN)C(=O)N2C[C@H](O)C[C@H]2C(=O)N[C@@H](Cc2c[nH]c3ccccc23)C(=O)N[C@@H](CCCCN)C(=O)N[C@@H](Cc2cn(CC(=O)O)c3ccccc23)C(=O)N1C [Example 11216] ({CH2CO}-Y[NMeA]DPHK[Hyp]WK[Trp(1-CH2COOH)][NMeNle][NMeNle]LCGGG-{NH(CH2)12COOH}; thioether N-14)
13 | 0.3 to 9.9 nM | CCCC[C@H]1C(=O)N(C)[C@@H](CCCC)C(=O)N[C@@H](CC(C)C)C(=O)N[C@H](C(=O)NCC(=O)N[C@@H](CC(=O)NCCOCCOCCC(=O)NCC[C@H](NC(=O)CCCCCCCCCCCCCCCCC(=O)O)C(=O)O)C(=O)O)CSCC(=O)N[C@@H](Cc2ccc(O)cc2)C(=O)N2CCCC[C@H]2C(=O)N[C@@H](CC(N)=O)C(=O)N2CCC[C@H]2C(=O)N[C@@H](CN)C(=O)N[C@@H](CC(C)C)C(=O)N2C[C@H](O)C[C@H]2C(=O)N[C@@H](Cc2c[nH]c3ccccc23)C(=O)N[C@@H](CCN)C(=O)N[C@@H](Cc2cn(CC(=O)O)c3ccccc23)C(=O)N1C [Example 13163] ({CH2CO}-Y[Pip]NP[Dap]L[Hyp]W[Dab][Trp(1-CH2COOH)][NMeNle][NMeNle]LCG[βAsp][PEG2]-X9; thioether N-14)
